Tests used:
[1] = molecular target: T1, dihydropteroate synthetase (Escherichia coli, UniProt P0AC13); assay: `synthetase` assay: formation of dihydropteroate-C^14; format: biochemical, E. coli
T1 construct: incubating an extract of E. coli with pAB-7-C^14; endogenous in cells; host or cells: E. coli extract (synthetase separated from HMPPS on Sephadex G-100, as concluded from part (a))
Protocol: (b) The activity of the test compound against `synthetase` was determined as follows, by monitoring the formulation of dihydropteroate-C^14.
A pool of Pt was prepared from ATP neutralised (50 μl, 0.1M), MgCl2.6H2 O (50 μl, 0.1M), dithiothreitol (100 μl, 0.1M), tris buffer (100 μl, 0.4M, pH 8.3), HMPt (25 μl, 876 μM) and 170 μl of a solution containing HMPPS. The mixture was incubated for 60 minutes at 37° C., chilled briefly on ice and then dextrose (100 μl containing 72.1 mg/ml) and hexokinase (20 μl containing 2000 units/ml) were added at room temperature to the solution, which was allowed to stand at this temperature for 15 minutes.
A solution of MgCl2.6H2 O (10 μl, 0.1M), pAB-C^14 (10 μl, 0.4 mM), dithiothreitol (20 μl, 0.1M) and tris buffer (20 μl, 0.4M, pH8.3) was made in each of five test tubes and then 80 μl of the contents of the pool added to each, together with synthetase and/or test compound as indicated in TABLE 2. The solution was then made up to 200 μl with distilled water.
All seven tubes were then incubated for 30 minutes at 37° C., chilled on ice and then these, together with control tubes 10 to 12 from part (a), were chromatographically analysed as follows:
100 μl of the contents of each of the tubes was spotted onto Whatman No. 3 MM chromatography paper (2×20 cm) at the `origin`, the run descending in a Sorenson buffer of potassium and sodium phosphates (0.1M, pH 7.0) for 10 to 15 cm.

Staphylococcus aureus = assay: zone inhibition, pteridine in agar, drugs in well; format: cell-based; details: for complete zone inhibition, SMX (300) / zone including partial inhibition, SMX (300): SMX 300 μg/ml; for complete zone inhibition, TMP + SMX (5) (100) / zone including partial inhibition, TMP + SMX (5) (100): TMP 5 + SMX 100 μg/ml
Protocol: (§1) The pteridine was included in a soya peptone medium of low thymidine content (Wellcotest Sensitivity Test Agar) contained in a Petri-dish and the other component(s) added to the well resulting from the removal of a small plug from the medium. The surface of the medium was inoculated with the test organism and then incubated.

Pseudomonas aeruginosa = assay: zone inhibition, pteridine in agar, drugs in well; format: cell-based; details: for complete zone inhibition, SMX (300) / zone including partial inhibition, SMX (300): SMX 300 μg/ml; for zone including partial inhibition, TMP (30): TMP 30 μg/ml; for complete zone inhibition, TMP + SMX (5) (100) / zone including partial inhibition, TMP + SMX (5) (100): TMP 5 + SMX 100 μg/ml
Protocol: as §1

E. acervulina = assay: coccidiosis screening test in chicks, E. acervulina; format: in vivo
Protocol: "Screening tests" were performed to establish the effectiveness of the compounds of formula (I) both alone and in combination with a competitor and or an inhibitor and to determine the most useful levels of relative concentrations of each component in combatting or suppressing coccidiosis.
Groups of Ranger cockerels, housed in small, heated cages with wire floors situated in enironmentally controlled isolation rooms, were infected orally with sporulated oocysts of the Eimeria spp such as E. tenella or E. acervulina. The appropriate test compound(s), (DMHP, sulphaquinoxaline (SQX) or diaveridine (DV) or any combination of these) were incorporated in a small quantity of specially formulated laboratory ration deficient in Vitamin K (`L.D.4 mash`), as a 1/10 pre-mix, which was then mixed into the diet on a horizontal roller drum mixed and administered to groups of chicks one day prior to infection, leaving some groups as untreated controls. […]
The amount of damage, marked by lesions in the caecal walls was investigated in those chicks that died during the course of the experiment, and in those sacrificed on the final day of administration, and compared with the untreated controls as a basis for the determination of therapeutic activity. In addition the mortality rate and the percentage weight gains in the various groups were assessed. […]

[2] = pteridine 3 μg/ml, TMP 30 μg/ml
[3] = pteridine 10 μg/ml, TMP 30 μg/ml

T1 sequence (P0AC13 whole entry): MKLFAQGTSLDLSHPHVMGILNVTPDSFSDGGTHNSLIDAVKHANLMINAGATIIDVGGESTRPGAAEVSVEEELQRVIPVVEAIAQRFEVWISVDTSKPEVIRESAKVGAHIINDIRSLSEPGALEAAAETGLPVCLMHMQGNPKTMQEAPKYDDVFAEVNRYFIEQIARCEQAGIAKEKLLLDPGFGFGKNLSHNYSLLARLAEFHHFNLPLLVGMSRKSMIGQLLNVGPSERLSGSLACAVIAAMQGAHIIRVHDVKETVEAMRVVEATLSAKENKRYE

SMILES: CC1(C)Nc2nc(N)nc(O)c2N=C1CO [DMHP, 2-amino-4-hydroxy-6-hydroxymethyl-7,7-dimethyl-7,8-dihydropteridine]
- inhibition at 10 µM ([1]; final concentration 1 × 10^-5 M): 0%
- inhibition at 2.5 µM ([1]; final concentration 2.5 × 10^-6 M): 5%
- inhibition at 87 µM ([1]; final concentration 8.7 × 10^-5 M): 9%
- complete zone inhibition, SMX (300) (Staphylococcus aureus; pteridine 3 μg/ml): 4.0 centimeters
- zone including partial inhibition, SMX (300) (Staphylococcus aureus; pteridine 3 μg/ml): 10.0 centimeters
- complete zone inhibition, TMP (30) (Staphylococcus aureus; [2]): 8.0 centimeters
- zone including partial inhibition, TMP (30) (Staphylococcus aureus; [2]): 10.0 centimeters
- complete zone inhibition, TMP + SMX (5) (100) (Staphylococcus aureus; pteridine 3 μg/ml): 10.0 centimeters
- zone including partial inhibition, TMP + SMX (5) (100) (Staphylococcus aureus; pteridine 3 μg/ml): 12.0 centimeters
- complete zone inhibition, SMX (300) (Staphylococcus aureus; pteridine 10 μg/ml): 5.0 centimeters
- zone including partial inhibition, SMX (300) (Staphylococcus aureus; pteridine 10 μg/ml): 12.0 centimeters
- complete zone inhibition, TMP (30) (Staphylococcus aureus; [3]): 8.5 centimeters
- zone including partial inhibition, TMP (30) (Staphylococcus aureus; [3]): 10.5 centimeters
- complete zone inhibition, TMP + SMX (5) (100) (Staphylococcus aureus; pteridine 10 μg/ml): 10.5 centimeters
- zone including partial inhibition, TMP + SMX (5) (100) (Staphylococcus aureus; pteridine 10 μg/ml): 12.0 centimeters
- complete zone inhibition, TMP (30) (Staphylococcus aureus; pteridine 30 μg/ml in medium, TMP 30 μg/ml in well, about 6× magnification): 11.0 centimeters
- complete zone inhibition, SMX (300) (Staphylococcus aureus; pteridine 30 μg/ml): 9.0 centimeters
- zone including partial inhibition, SMX (300) (Staphylococcus aureus; pteridine 30 μg/ml): 14.5 centimeters
- zone including partial inhibition, TMP (30) (Staphylococcus aureus; pteridine 30 μg/ml, TMP 30 μg/ml): 14.0 centimeters
- complete zone inhibition, TMP + SMX (5) (100) (Staphylococcus aureus; pteridine 30 μg/ml): 11.5 centimeters
- zone including partial inhibition, TMP + SMX (5) (100) (Staphylococcus aureus; pteridine 30 μg/ml): 14.5 centimeters
- complete zone inhibition, SMX (300) (Pseudomonas aeruginosa; pteridine 3 μg/ml): 9.0 centimeters
- zone including partial inhibition, SMX (300) (Pseudomonas aeruginosa; pteridine 3 μg/ml): 14.0 centimeters
- zone including partial inhibition, TMP (30) (Pseudomonas aeruginosa; pteridine 3 μg/ml): 5.0 centimeters
- complete zone inhibition, TMP + SMX (5) (100) (Pseudomonas aeruginosa; pteridine 3 μg/ml): 8.0 centimeters
- zone including partial inhibition, TMP + SMX (5) (100) (Pseudomonas aeruginosa; pteridine 3 μg/ml): 11.0 centimeters
- complete zone inhibition, SMX (300) (Pseudomonas aeruginosa; pteridine 10 μg/ml): 15.0 centimeters
- zone including partial inhibition, SMX (300) (Pseudomonas aeruginosa; pteridine 10 μg/ml): 20.0 centimeters
- zone including partial inhibition, TMP (30) (Pseudomonas aeruginosa; pteridine 10 μg/ml): 6.0 centimeters
- complete zone inhibition, TMP + SMX (5) (100) (Pseudomonas aeruginosa; pteridine 10 μg/ml): 12.0 centimeters
- zone including partial inhibition, TMP + SMX (5) (100) (Pseudomonas aeruginosa; pteridine 10 μg/ml): 15.0 centimeters
- Total Oocysts × 10^6 Days 5 & 6 (E. acervulina; Expt. 8, 5,000,000 oocysts, SQX/DV/DMHP p.p.m: b497-499 -/-/30, 10, 5, b500 10/10/-, b502 10/10/30, b504 10/10/10, b506 10/10/5): 0.0 × 10^6
- activity alone against moderate infection with E. acervulina (E. acervulina; concentrations of 250 and 90 p.p.m): active alone
